Test results published in PubChem BioAssay AID248 (DTP/NCI, 2004).
Where “and” joins values, the source holds several entries; their conditions need not be identical. Equal values may be shown once. Inconclusive results and toxic doses are left out.

Tested on: L1210 leukemia ip in BDF1 mice, survival T/C
Test: NCI In Vivo Anticancer Drug Screen. Data for tumor model L1210 Leukemia (intraperitoneal) in B6D2F1 (BDF1) mice
Conditions: endpoint: mean survival time, higher = longer survival
Method in brief: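 Mice bearing the transplanted tumor received compound or vehicle. Survival of the treated group was divided by that of the vehicle-treated control group to give the ratio.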

[1] = dose: 100.0 mg/kg/injection, schedule: Q04DX003 (ip), vehicle: Klucel (hydroxypropylcellulose) (HPC)
[2] = dose: 200.0 mg/kg/injection, schedule: Q04DX003 (ip), vehicle: Klucel (hydroxypropylcellulose) (HPC)
[3] = dose: 400.0 mg/kg/injection, schedule: Q04DX003 (ip), vehicle: Klucel (hydroxypropylcellulose) (HPC)
[4] = dose: 100.0 mg/kg/injection, schedule: Q04DX002 (ip), vehicle: saline

With CCCCC(SC(CC)(C(N)=O)c1ccccc1)C(=O)O (stereo not drawn) the T/C (dose: 100.0 mg/kg/injection, schedule: Q01DX001 (ip), vehicle: carboxymethylcellulose (CMC)) was 90 % of control, the T/C (dose: 200.0 mg/kg/injection, schedule: Q01DX001 (ip), vehicle: carboxymethylcellulose (CMC)) was 102 % of control and the T/C (dose: 400.0 mg/kg/injection, schedule: Q01DX001 (ip), vehicle: carboxymethylcellulose (CMC)) was 90 % of control.
With CC(C)NC(=O)Oc1cccc(NC(=O)N(C)C)c1 the T/C (dose: 100.0 mg/kg/injection, schedule: Q01DX009 (ip), vehicle: saline with Tween-80) was 93 % of control, the T/C (dose: 200.0 mg/kg/injection, schedule: Q01DX009 (ip), vehicle: saline with Tween-80) was 93 % of control and the T/C (dose: 400.0 mg/kg/injection, schedule: Q01DX009 (ip), vehicle: saline with Tween-80) was 93 % of control.
With N/N=C(\N)NC(=O)c1ccccc1 the T/C (dose: 15.0 mg/kg/injection, schedule: Q01DX Z (ip), vehicle: saline) was 103 % of control, the T/C (dose: 30.0 mg/kg/injection, schedule: Q01DX Z (ip), vehicle: saline) was 97 % of control and the T/C (dose: 60.0 mg/kg/injection, schedule: Q01DX Z (ip), vehicle: saline) was 94 % of control. The T/C (dose: 120.0 mg/kg/injection, schedule: Q01DX Z (ip), vehicle: saline) was 105 % of control, the T/C (dose: 240.0 mg/kg/injection, schedule: Q01DX Z (oral), vehicle: saline) was 108 % of control and the T/C (dose: 480.0 mg/kg/injection, schedule: Q01DX Z (oral), vehicle: saline) was 95 % of control. For the same molecule, the T/C (dose: 960.0 mg/kg/injection, schedule: Q01DX Z (oral), vehicle: saline) was 103 % of control and the T/C (dose: 1920.0 mg/kg/injection, schedule: Q01DX Z (oral), vehicle: saline) was 101 % of control.
Cn1c(NCC[N+](C)(C)C)nc2ncncc21 was tested, and the T/C (dose: 15.0 mg/kg/injection, schedule: Q01DX001 (ip), vehicle: saline) was 90 % of control, the T/C (dose: 30.0 mg/kg/injection, schedule: Q01DX001 (ip), vehicle: saline) was 93 % of control and the T/C (dose: 60.0 mg/kg/injection, schedule: Q01DX001 (ip), vehicle: saline) was 95 % of control.
With CCCCCCCCCCCCCCCCS(=O)(=O)c1ccc(NN)cc1 the T/C (dose: 100.0 mg/kg/injection, schedule: Q01DX009 (ip), vehicle: Klucel (hydroxypropylcellulose) (HPC)) was 89 % of control, the T/C [1] was 97 % of control and the T/C (dose: 200.0 mg/kg/injection, schedule: Q01DX009 (ip), vehicle: Klucel (hydroxypropylcellulose) (HPC)) was 91 % of control. The T/C [2] was 98 % of control, the T/C (dose: 400.0 mg/kg/injection, schedule: Q01DX009 (ip), vehicle: Klucel (hydroxypropylcellulose) (HPC)) was 90 % of control and the T/C [3] was 105 % of control.
CCOC(=O)NCCCNC(=O)OCC was tested, and the T/C (dose: 100.0 mg/kg/injection, schedule: Q04DX003 (ip), vehicle: saline) was 95 % of control, the T/C (dose: 200.0 mg/kg/injection, schedule: Q04DX003 (ip), vehicle: saline) was 103 % of control and the T/C (dose: 400.0 mg/kg/injection, schedule: Q04DX003 (ip), vehicle: saline) was 97 % of control.
With CCC(CO)(CO)[N+](=O)[O-] the T/C (dose: 100.0 mg/kg/injection, schedule: Q04DX003 (ip), vehicle: saline with Tween-80) was 95 % of control, the T/C (dose: 200.0 mg/kg/injection, schedule: Q04DX003 (ip), vehicle: saline with Tween-80) was 91 % of control and the T/C (dose: 400.0 mg/kg/injection, schedule: Q04DX003 (ip), vehicle: saline with Tween-80) was 91 % of control.
With Nc1ncnc2c1ncn2C1OC(CO)C(O)C1OCc1ccccc1 (stereo not drawn) the T/C (dose: 100.0 mg/kg/injection, schedule: Q01DX005 (ip), vehicle: saline) was 90 % of control and the T/C (dose: 200.0 mg/kg/injection, schedule: Q01DX005 (ip), vehicle: saline) was 103 % of control.
For N=C(N)SCc1ccc(Cl)cc1, the T/C (dose: 25.0 mg/kg/injection, schedule: Q04DX002 (ip), vehicle: saline) was 98 % of control, the T/C (dose: 50.0 mg/kg/injection, schedule: Q04DX002 (ip), vehicle: saline) was 94 % of control and the T/C [4] was 101 % of control.
Cc1ccc(N)cc1S(=O)(=O)F was tested, and the T/C (dose: 75.0 mg/kg/injection, schedule: Q01DX001 (ip), vehicle: saline) was 107 % of control, the T/C (dose: 150.0 mg/kg/injection, schedule: Q01DX001 (ip), vehicle: saline) was 98 % of control and the T/C (dose: 300.0 mg/kg/injection, schedule: Q01DX001 (ip), vehicle: saline) was 103 % of control.
In the case of CS(=O)(=O)OCC(=O)NCC(O)CNC(=O)COS(C)(=O)=O, the T/C (dose: 75.0 mg/kg/injection, schedule: Q01DX015 (ip), vehicle: saline) is reported as 151 % of control, the T/C (dose: 80.0 mg/kg/injection, schedule: Q01DX009 (ip), vehicle: saline) is reported as 153 % of control and the T/C (dose: 120.0 mg/kg/injection, schedule: Q01DX009 (ip), vehicle: saline) is reported as 180 % of control. For the same molecule, the T/C (dose: 150.0 mg/kg/injection, schedule: Q01DX015 (ip), vehicle: saline) was 164 % of control and the T/C (dose: 180.0 mg/kg/injection, schedule: Q01DX009 (ip), vehicle: saline) was 156 % of control and 164 % of control.
In the case of COC(=O)CN(C(=S)c1ccccc1)c1ccccc1, the T/C [1] is reported as 104 % of control, the T/C [2] is reported as 96 % of control and the T/C [3] is reported as 94 % of control.
In the case of O=[N+]([O-])c1ccccc1N1N=NC2CC/C(=C\c3ccc(Cl)cc3)C21N1CCOCC1 (stereo not drawn), the T/C [4] is reported as 108 % of control, the T/C (dose: 200.0 mg/kg/injection, schedule: Q04DX002 (ip), vehicle: saline) is reported as 89 % of control and the T/C (dose: 400.0 mg/kg/injection, schedule: Q04DX002 (ip), vehicle: saline) is reported as 92 % of control.
